Values of other authors, collected in US8470873B2, “Vitamin E succinate stabilized pharmaceutical compositions, methods for the preparation and the use thereof” (Mast Therapeutics, Inc., priority 2006, dated 2013).

Key:
[1] = hydrolysis

stability in the presence of water [1]	solubility in water	SMILES
very unstable	–	CC(=O)O[C@@]12CO[C@@H]1C[C@H](O)[C@@]1(C)C(=O)[C@H](O)C3=C(C)[C@@H](OC(=O)[C@H](O)[C@@H](NC(=O)OC(C)(C)C)c4ccccc4)C[C@@](O)([C@@H](OC(=O)c4ccccc4)[C@H]21)C3(C)C [Docetaxel, (2R,3S)-N-carboxy-3-phenylisoserine,N-tert-butyl ester, 13-ester with 5β-20-epoxy-1,2α-,4,7β,10β,13α-hexahydroxytax-11-en-9-one 4-acetate 2-benzoate, trihydrate]
–	insoluble	CC(=O)O[C@H]1C(=O)[C@@]2(C)[C@H]([C@H](OC(=O)c3ccccc3)[C@]3(O)C[C@H](OC(=O)[C@H](O)[C@@H](NC(=O)c4ccccc4)c4ccccc4)C(C)=C1C3(C)C)[C@]1(OC(C)=O)CO[C@@H]1C[C@@H]2O [paclitaxel]
